US11787790B2, “Benzimidazole derivative having fluorine-containing substituent, preparation and application thereof” (YUNBAIYAO ZHENGWU SCIENCE AND TECHNOLOGY (SHANGHAI) CO., …, priority 2020, dated 2023)

Key:
[1] = test system: U87MG cells (human malignant glioma cells); assay: CCK-8 anti-proliferation assay, U87MG cells; assay type: cell-based; settings: U-87 MG, CCK-8, 72 hours incubation, read-out: U87MG cell IC50
Experimental: (§1) The anti-proliferation activities of compounds 1-11 to U87MG cells (human malignant glioma cells, ATCC 5018014), NCI-H1975 cells (human non-small cell lung adenocarcinoma cells, ATCC 57849016), A549 cells (human non-small cell lung cancer cells, ATCC 7503618), HCT 116 (human colon cancer cells, ATCC 4587576), and MCF-7 (human breast cancer cells, ATCC 5105360) were verified by using a CCK-8 method.
(§2) A sample stock solution with a concentration of 20 μM was prepared first. The stock solution was sequentially diluted to obtain 10 samples with concentrations of 20000 nM, 4000 nM, 800 nM, 160 nM, 32 nM, 6.4 nM, 1.28 nM, 0.256 nM, 0.0512 nM, and 0.01024 nM, respectively.
(§3) 50 μL of cell suspension with density of 2*10^4 cells/mL was prepared in 96-well plates followed by pre-culturing in the incubator for 24 hours (37° C., 5% CO2). 50 μL of afore-mentioned sample solution was added into each well. After incubated for 72 hours, 10 μl of CCK-8 solution was added into each well, and then further incubated for additional 2 hours.

[2] = test system: NCI-H1975 cells (human non-small cell lung adenocarcinoma cells); assay: CCK-8 anti-proliferation assay, NCI-H1975 cells; assay type: cell-based; settings: CCK-8, 72 hours incubation
Experimental: as §1, §2, §3

[3] = test system: A549 cells (human non-small cell lung cancer cells); assay: CCK-8 anti-proliferation assay, A549 cells; assay type: cell-based; settings: CCK-8, 72 hours incubation
Experimental: as §1, §2, §3

[4] = test system: HCT 116 (human colon cancer cells); assay: CCK-8 anti-proliferation assay, HCT 116 cells; assay type: cell-based; settings: CCK-8, 72 hours incubation, read-out: HCT116 cell IC50
Experimental: as §1, §2, §3

[5] = test system: MCF-7 (human breast cancer cells); assay: CCK-8 anti-proliferation assay, MCF-7 cells; assay type: cell-based; settings: MCF7, CCK-8, 72 hours incubation, read-out: MCF-7 cell IC50
Experimental: as §1, §2, §3

[6] = Determination of half-lethal dose (LD50) in mice; settings: both sexes, mouse, in vivo, Kunming mice, gastric administration, Bliss calculation method
Experimental: The SPF-grade Kunming mice, belonging to the outbred stock and weighing 20±2 g, were selected (a ratio of the males to the females was 1:1). The dosage range of each compound was explored through pre-experiments. After that, formal tests were carried out. In the range of 0-100% of the lethal dose obtained by the pre-experiments, five doses were selected to increase or decrease according to the isobaric series to allow the mortality of one half of the groups to be 50% or above, and the other half to be 50% or less. After animal grouping and dosage calculation were completed, gastric administration was performed according to the group. The time from the administration to the beginning of the occurrence of toxic reaction, the poisoning phenomenon and the occurrence sequence thereof, the time of the first occurrence of death, the time of death concentration, and the time of the last occurrence of death were recorded. The number of deaths in each group was recorded day by day.

[7] = in vivo; cited from earlier work
[8] = oral administrated; cited from earlier work

SMILES | IC50 [1] [nM] | IC50 [2] [nM] | IC50 [3] [nM] | IC50 [4] [nM] | IC50 [5] [nM] | LD50 ([6]; oral) [mg/kg] | LD50 [6] [mg/kg] | crossing the blood-brain barrier [7] | bioavailability [8] [%]
N#CCCNc1nonc1-c1nc2ccccc2n1CC(F)(F)c1ccc(N)cc1 [Compound 1, 3-[(4-{1-[2-(4-aminophenyl)-2,2-difluoroethyl]-1H-benzimidazol-2-yl}-1,2,5-oxadiazol-3-yl)amino] propionitrile] | 31.3 | 19.4 | 29 | 19.7 | 33 | 267 | – | – | –
Cc1ccc2c(c1)nc(-c1nonc1NCCC#N)n2CC(F)(F)c1ccc(N)cc1 [Compound 7] | 12.5 | 32.4 | 13.9 | 13.7 | 25.7 | 239 | – | – | –
N#CCCNc1nonc1-c1nc2ccccc2n1CC(=O)c1ccc(N)cc1 [Compound 11, 3-{[4-(1-(4-aminoacetophenone)-benzimidazol-2-yl)-1,2,5-oxadiazol-3-yl]amino}propionitrile, reference compound] | 51.2 | 42.8 | 42.4 | 52.6 | 39.2 | – | 153 | capable of crossing the blood-brain barrier | –
N#CCCNc1nonc1-c1nc2c(Cl)cccc2n1CC(F)(F)c1ccc(N)cc1 [Compound 4] | 27.3 | 14.9 | 12.9 | 12.1 | 21.7 | 262 | – | – | –
N#CCCNc1nonc1-c1nc2cc(Cl)ccc2n1CC(F)(F)c1ccc(N)cc1 [Compound 5] | 15.7 | 27.4 | 13.2 | 35.8 | 16.9 | 264 | – | – | –
N#CCCNc1nonc1-c1nc2ccccc2n1CC(F)c1ccc(N)cc1 (stereo not drawn) [Compound 8, 3-[(4-{1-[2-(4-aminophenyl)-2-fluoroethyl]-1H-benzimidazol-2-yl}-1,2,5-oxadiazol-3-yl)amino] propionitrile] | 15.6 | 17.5 | 33.7 | 24.4 | 22.8 | 291 | – | – | –
N#CCCNc1nonc1-c1nc2cc(C(F)(F)F)ccc2n1CC(F)(F)c1ccc(N)cc1 [Compound 6] | 34.2 | 11.9 | 14.7 | 17.2 | 13.2 | 254 | – | – | –
Cn1nnc2c(C(N)=O)ncn2c1=O [Temozolomide] | – | – | – | – | – | – | – | can cross the blood-brain barrier | ~100
N#CCCNc1nonc1-c1nc2c(O)cccc2n1CC(F)(F)c1ccc(N)cc1 [Compound 2] | 22.4 | 31.2 | 18.2 | 28.3 | 17.4 | 245 | – | – | –
N#CCCNc1nonc1-c1nc2ccccc2n1C(F)(F)c1ccc(N)cc1 [Compound 9] | 23.9 | 19.8 | 28.7 | 28.5 | 32.8 | 305 | – | – | –
N#CCCNc1nonc1-c1nc2ccccc2n1CCC(F)(F)c1ccc(N)cc1 [Compound 10] | 41.2 | 34.3 | 41.5 | 38.7 | 38.5 | 323 | – | – | –
N#CCCNc1nonc1-c1nc2cc(O)ccc2n1CC(F)(F)c1ccc(N)cc1 [Compound 3] | 13.2 | 13.3 | 26.8 | 13.6 | 13.2 | 239 | – | – | –
